From patent US20240000740A1, “OMEGA-3 POLYUNSATURATED FATTY ACIDS FOR TREATING / PREVENTING MALE INFERTILITY IN PREPUBERTAL CANDIDATES FOR GONADOTOXIC THERAPIES” (UNIVERSITA' DEGLI STUDI DI PERUGIA, priority 2020, published 2024)
Entries after “also recorded” stand apart in the source; their conditions may differ.

How the values were obtained:
Assay type in all cases: cell-based, pig
GDNF [1] = assay: Real-time PCR analysis of GDNF gene expression in SCs of prepubertal pigs; details: for gene expression of GDNF, real-time PCR: 48 hours plus 24 of recovery, compared to untreated SCs
Procedure: (§1) The animal studies were conducted in accordance with national guidelines (approved Italian animal protection certification A-3143-01) and guidelines of the Committee for the Care and Use of Animals of the University of Perugia. The experimental protocols were approved by the University of Perugia. The newborn prepubertal “Large White” pigs (Farm “Trequattrini”, S. Elena di Marsciano, PG), aged 7-15 days, were used as SC donors. The SCs were isolated in accordance with previously established methods, modified in our laboratory (Luca et al., 2015).
(§2) The SCs were maintained at 37° C. and 5% CO2 in HAMF-12 (Euroclone, MI, Italy) supplemented with 0.166 nM of retinoic acid (Sigma-Aldrich, St. Louis, MO, USA) and 5 mL/500 ml of ITS (Becton Dickinson cat. no. 354352, NJ, USA) in the absence (untreated) or presence of chemotherapeutic drugs for 48 hours plus 24 of recovery at the following concentrations: • Cisplatin 0.33 μM, 1.66 μM and 3.33 μM; • 4-hydroperoxycyclophosphamide (40HP) 50 and 100 μM; • Doxorubicin 0.1 μM, 0.2 μM and 1 μM; • cisplatin 3.33 μM plus EPA 100 μM; • cisplatin 3.33 μM plus 5-aza-2′-deoxy-cytidine (5 AZA) 1 μM.
Total RNA was isolated from the monolayers of untreated SCs and SCs treated with chemotherapeutic drugs (plus EPA or without EPA) by means of an RNA purification kit (Versagene RNA Cell Kit, Gentra Systems, Minneapolis, MN) and quantified by reading the optical density at 260 nm. Subsequently, 1 μg of total RNA was subjected to RT in a final volume of 20 μl by means of the Maxima First Strand cDNA Synthesis kit (Thermo Scientific, MA, USA). Real-time PCR was performed using 16 ng of cDNA, prepared from the RT reaction, and SYBR Green (Stratagene, Amsterdam, Netherlands). Real-time PCR was performed with an Mx3000P cycler (Stratagene) using FAM for detection and ROX as the reference dye. The level of mRNA for each sample was normalised with respect to the mRNA of β-actin and expressed as a change compared to the level of the untreated control cells.

GDNF [2] = assay: Western blotting and densitometric analysis of GDNF protein expression in SCs of prepubertal pigs; details: 48 hours plus 24 of recovery, compared to untreated SCs
Procedure: as §1, §2
The SCs were maintained at 37° C. and 5% CO2 in HAMF-12 (Euroclone, MI, Italia) supplemented with 0.166 nM of retinoic acid (Sigma-Aldrich, St. Louis, MO, USA) and 5 mL/500 ml of ITS (Becton Dickinson cat. no. 354352, NJ, USA) in the absence (untreated) or presence of cisplatin 0.5 and 1 μg/ml for 48 hours plus 24 of recovery plus 100 μM EPA.
The SCs were cultured at 37° C. and 5% CO2 in HAMF-12 (Euroclone, MI, Italy) supplemented with 0.166 nM of retinoic acid (Sigma-Aldrich, St. Louis, MO, USA) and 5 mL/500 ml of ITS (Becton Dickinson cat. no. 354352, NJ, USA) in the absence (untreated) or presence of cisplatin 0.5 and 1 μg/ml for 48 hours plus 24 of recovery and with the addition of 100 μM EPA. […] The images were acquired by means of the VersaDoc Imaging System (Bio-Rad Hercules, CA, USA), and the respective signals were quantified using Quantity One software (Bio-Rad) 2.8.

[3] = tested on: 5-hydroxymethylcytosine (5hmC); assay: Immunofluorescence analysis of 5hmC in Sertoli cells (SCs) of prepubertal pigs; details: 48 hours plus 24 of recovery, compared to untreated SCs
Procedure: as §1, §2
The untreated SCs and SCs treated with chemotherapeutic drugs (plus EPA or without EPA), were made to grow on round slides pre-treated with gelatine (Sigma-Aldrich). At the end of the treatment, the SCs were fixed for 30 min in 4% paraformaldehyde in phosphate buffer (PBS). Prior to immunolabelling, the cells were subjected to permeabilization (PBS, 0.2% Triton X) for 5 min at room temperature, blocked in 0.5% bovine serum albumin (BSA; Sigma-Aldrich, St. Louis, MO) in PBS for 10 min, and then exposed to the primary anti-5hmC antibody (Santa Cruz Biotechnology, 1:100 in PBS) overnight at 4° C. The cells were washed three times in PBS for 5 min and then exposed to the secondary Alexa-488 labelled antibody (1:500 in PBS). The cells were counterstained with 4′,6-diamidino-2-phenylindole (DAPI) for 1 min after treatment with RNase (10 mg/mL per 10 min.). The negative control for the immunolabelling consisted in skipping the labelling with the primary antibody and passing directly to the secondary antibody. The slides were then mounted with ProLong® Gold Antifade (ThermoFisher) and the images were acquired with an Olympus BX-41 equipped with Cell-F image processing software (Olympus).

[4] = SCs treated with doxorubicin 0.1, 0.2 and 1 μM
[5] = SCs treated with cisplatin 0.33, 1.66 and 3.33 μM
[6] = SCs treated with 4-hydroperoxycyclophosphamide 50 and 100 μM

For `COc1cccc2c1C(=O)c1c(O)c3c(c(O)c1C2=O)C[C@@](O)(C(=O)CO)C[C@@H]3O[C@H]1C[C@H](N)[C@H](O)[C@H](C)O1` [doxorubicin], the “gene expression of GDNF, real-time PCR” value (GDNF [1]; [4]) was “significant reduction”, the “protein expression of GDNF, western blotting” value (“protein expression of GDNF” for short) (GDNF [2]; [4]) was “significant reduction” and the “5-hydroxymethylcytosine (5hmC), immunofluorescence analysis” value (shortened to “5-hydroxymethylcytosine (5hmC)”) [3, 4] was “progressive reduction; also recorded: significant reduction”.

With `Nc1ncn([C@H]2C[C@H](O)[C@@H](CO)O2)c(=O)n1` [AZA, 5-aza-2′-deoxycytidine] the “recovery in the expression of GDNF” value (GDNF [1]; SCs treated with cisplatin 3.33 μM plus 5 AZA 1 μM, compared with EPA treatment) was “comparable to the one induced by treatment with the fatty acid EPA; also recorded: recovery comparable to that induced by treatment with the fatty acid”.

In the case of `N.N.[Cl][Pt][Cl]` [Cisplatin], the “gene expression of GDNF, real-time PCR” value (GDNF [1]; [5]) is reported as “significant reduction”, the “protein expression of GDNF” value (GDNF [2]; [5]) is reported as “significant reduction” and the “5-hydroxymethylcytosine (5hmC)” value [3, 5] is reported as “significant reduction”. The “5-hydroxymethylcytosine (5hmC)” value ([3]; SCs treated with cisplatin 0.33, 1.66 and 3.33 μM, listed as cisplatin) was “progressive reduction”.

`O=P1(N(CCCl)CCCl)NC(OO)CCO1` (stereo not drawn) [4-hydroperoxycyclophosphamide] was tested, and the “gene expression of GDNF, real-time PCR” value (GDNF [1]; [6]) was “significant reduction”, the “protein expression of GDNF” value (GDNF [2]; [6]) was “significant reduction” and the “5-hydroxymethylcytosine (5hmC)” value [3, 6] was “significant reduction”. For the same compound, the “5-hydroxymethylcytosine (5hmC)” value ([3]; SCs treated with 4-hydroperoxycyclophosphamide 50 and 100 μM, listed as 4OHP) was “progressive reduction”.
